Results from article PMC11259170, “Small-molecule probe for IBD risk variant GPR65 I231L alters cytokine signaling networks through positive allosteric modulation” (Science Advances, 2024).
Read-outs that look alike come from different tables or passages of the source.

Legend:
[1] = test system: GFP-expressing HeLa cells; assay: cAMP detection in HeLa expression cell line, GFP control; format: cell-based, human; conditions: Homo sapiens, HeLa; for Emax: relative to 100uM forskolin (100%) and DMSO (0%), read-out: GFP Max Activity %
Description: (§1) HeLa stable expression cell lines were produced by lentiviral transduction. Briefly, lentiviral plasmids for each GPCR with a C-terminal V5 Tag ([…]) were made in a pLX317 backbone using competent Escherichia coli (New England Biolabs, C3050H). Lenti-X 293 T (Takara, 632810) cells were transfected with the lentiviral plasmids to produce virus. Low-passage HeLa cells (American Type Culture Collection, CCL-2) were then transduced with lentivirus. After 48 hours, HeLa cells were cultured under selection with puromycin (3 μg/ml) and allowed to recover and expand before storing stocks in liquid nitrogen.
(§2) cAMP was measured in cells using the Lance Ultra cAMP Kit. HeLa cells were cultured under puromycin (3 μg/ml) selection. One day before the experiment, cells were seeded in T75 flasks and allowed to adhere overnight. On the day of the experiment, cells were washed twice with Dulbecco’s PBS and lifted using prewarmed 1× versene solution (Gibco, 15040066). Cells were counted in HBSS (Gibco, 14025092) and then resuspended in stimulation buffer prepared according to the manufacturer’s instructions and adjusted to pH 7.2 using 1 M sodium hydroxide. Cells were added to the plate at a density of 1500 cells per well in white opaque 384-well assay ready microplates containing 100 nl of 10 mM compound in DMSO. Cells were stimulated for 30 min at RT, then lysed and incubated with detection reagents for 1 hour in the dark at RT. Plates were read on BMG Labtech PHERAstar FSX (excitation, 337 nm; emission, 620 and 665 nm). Data analysis was performed using GraphPad Prism.

hGPR65 = target: T1, hGPR65 (Homo sapiens, UniProt Q8IYL9); assay: cAMP detection in HeLa expression cell line, hGPR65; format: cell-based; conditions: NA = no activity; for Emax: HeLa, relative to 100uM forskolin (100%) and DMSO (0%), read-out: hGPR Max Activity %
T1 construct: expressed in transfected cells; host or cells: HeLa (ATCC CCL-2), lentiviral transduction, pLX317
Description: as §1, §2

mGPR65 = target: T2, mGPR65 (Mus musculus, UniProt Q61038); assay: cAMP detection in HeLa expression cell line, mGPR65; format: cell-based; conditions: for Emax: HeLa, relative to 100uM forskolin (100%) and DMSO (0%), read-out: mGPR Max Activity %
T2 construct: expressed in transfected cells; host or cells: HeLa (ATCC CCL-2), lentiviral transduction, pLX317
Description: as §1, §2

[2] = 2nd GFP column pair, NA = no activity
[3] = 1st hGPR column pair, read-out: hGPR EC50
[4] = 2nd hGPR column pair, read-out: hGPR EC50
[5] = 1st mGPR column pair, NA = no activity, read-out: mGPR EC50
[6] = 2nd mGPR column pair, NA = no activity, read-out: mGPR EC50
[7] = 2nd mGPR column pair, NA = no activity
[8] = 1st GFP column pair, NA = no activity

T2 sequence (Q61038 whole entry): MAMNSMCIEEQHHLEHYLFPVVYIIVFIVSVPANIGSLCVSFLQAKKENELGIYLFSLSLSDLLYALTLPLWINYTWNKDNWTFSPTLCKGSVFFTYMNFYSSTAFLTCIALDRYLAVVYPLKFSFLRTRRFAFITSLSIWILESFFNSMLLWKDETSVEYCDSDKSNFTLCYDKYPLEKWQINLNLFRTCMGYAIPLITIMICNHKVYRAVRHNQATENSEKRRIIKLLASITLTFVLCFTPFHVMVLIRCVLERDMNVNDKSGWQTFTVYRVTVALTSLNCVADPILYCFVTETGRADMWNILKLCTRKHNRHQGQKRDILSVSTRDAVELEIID
T1 sequence (Q8IYL9 whole entry): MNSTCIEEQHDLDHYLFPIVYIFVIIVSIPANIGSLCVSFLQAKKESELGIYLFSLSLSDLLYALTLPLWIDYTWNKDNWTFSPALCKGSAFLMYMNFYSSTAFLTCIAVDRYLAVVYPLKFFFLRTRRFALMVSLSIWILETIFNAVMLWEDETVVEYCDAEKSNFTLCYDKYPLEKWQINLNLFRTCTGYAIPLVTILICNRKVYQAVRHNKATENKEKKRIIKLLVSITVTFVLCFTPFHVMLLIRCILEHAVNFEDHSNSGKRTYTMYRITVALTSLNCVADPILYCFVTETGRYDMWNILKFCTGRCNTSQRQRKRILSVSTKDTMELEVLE

Compound	EC50 [1, 2]	Emax [1, 2]	EC50 (hGPR65; [3])	EC50 (hGPR65; [4])	Emax (hGPR65; 1st hGPR column pair)	Emax (hGPR65; 2nd hGPR column pair)	EC50 (mGPR65; [5])	EC50 (mGPR65; [6])	Emax (mGPR65; [7])	Emax (mGPR65; NA = no activity)	EC50 [1, 8]	Emax [1, 8]	other results
CCCc1cc(-c2cc(O)n3ncc(C(=O)Nc4ccccc4)c3n2)no1 [BRD0124]	24600 nM	2.25%	1120 nM	1750 nM	62.1%	71.8%	0.247 µM	0.151 µM	56.2%	63%	–	–	–
COCc1ccc(-c2cc(O)n3ncc(C(=O)NC4CCOCC4)c3n2)cc1 [BRD0202]	–	–	–	–	–	–	–	–	–	–	15600 nM	6.11%	–
Cc1n[nH]c(C)c1CCc1cc(O)n2ncc(C(=O)Nc3ccc(Cl)cc3)c2n1 [BRD1303]	–	–	–	–	–	–	15.9 µM	–	–	10.7%	38600 nM	5.8%	–
Cc1ccc(NC(=O)c2cnn3c(O)cc(-c4cccc(C)c4)nc23)cc1 [BRD1420]	–	–	3710 nM	–	22.9%	–	0.471 µM	–	–	2.06%	317 nM	2.36%	–
COCc1ccc(-c2cc(O)n3ncc(C(=O)Nc4ccccc4C)c3n2)cc1 [BRD2974]	–	–	–	–	–	–	26.4 µM	–	–	8.27%	3660 nM	19.4%	–
O=C(O)c1cnn2c(O)cc(-c3ccccc3)nc12 [BRD3374]	–	–	–	–	–	–	–	–	–	–	3780 nM	4.66%	–
Cc1ccc(NC(=O)c2cnn3c(O)cc(-c4ccc(N5CCCC5)cc4)nc23)cc1 [BRD4336]	–	–	8860 nM	–	14.5%	–	–	–	–	–	13800 nM	9.65%	–
Cc1ccc(NC(=O)c2cnn3c(O)cc(-c4ccc(N5CCOCC5)cc4)nc23)cc1 [BRD4390]	11700 nM	2.2%	703 nM	265 nM	73.5%	76.8%	0.403 µM	1.07 µM	26.8%	26.6%	–	–	–
CC(C)OCc1ccc(-c2cc(O)n3ncc(C(=O)Nc4ccccc4)c3n2)cc1 [BRD5060]	78100 nM	2.12%	3720 nM	10800 nM	94.5%	109%	2.07 µM	1.62 µM	48.6%	64.4%	47000 nM	5.52%	–
Cc1ccc(NC(=O)c2cnn3c(O)cc(-c4ccc(N5CCOCC5)c(Cl)c4)nc23)cc1 [BRD5062]	11400 nM	1.01%	1070 nM	851 nM	74.5%	71.6%	0.46 µM	0.284 µM	55.1%	50.8%	24700 nM	3.17%	–
CCOCc1ccc(-c2cc(O)n3ncc(C(=O)Nc4ccccc4)c3n2)cc1 [BRD5063]	190 nM	1.85%	4060 nM	5840 nM	76.1%	66.6%	5.47 µM	2.73 µM	38%	52.1%	–	–	–
COc1cc(-c2cc(O)n3ncc(C(=O)Nc4ccc(C)cc4)c3n2)ccc1F [BRD5066]	6080 nM	1.99%	1470 nM	1840 nM	67%	70.4%	1.15 µM	0.781 µM	29.4%	31.3%	–	–	–
Cc1ccc(NC(=O)c2cnn3c(O)cc(-c4cnc(N5CCN(C)CC5)c(Cl)c4)nc23)cc1 [BRD5069]	–	–	–	–	–	1.75%	–	–	42.5%	63.3%	1570 nM	2.17%	EC50 (hGPR65; hGPR EC50): 6240 nM; EC50 (mGPR65; mGPR EC50 (uM), 2nd mGPR column pair, NA = no activity): 5.03 µM; EC50 (mGPR65; mGPR EC50 (uM), NA = no activity): 0.65 µM
Cc1ccc(NC(=O)c2cnn3c(O)cc(-c4ccc(N5CCN(C)CC5)nc4)nc23)cc1 [BRD5070]	421 nM	2.13%	1310 nM	68.7 nM	13.4%	4.57%	1.35 µM	2.15 µM	34.4%	38.5%	3200 nM	2.48%	–
O=C(Nc1ccccc1)c1cnn2c(O)cc(COc3ccccc3)nc12 [BRD5802]	–	–	89800 nM	–	55.7%	–	–	–	–	–	41400 nM	5.04%	–
Cc1ccc(NC(=O)c2cnn3c(O)cc(Cc4ccc5ccccc5c4)nc23)cc1 [BRD7330]	–	–	–	–	–	–	–	–	–	–	–	–	EC50 ([1]; SAR cAMP assay, first EC50/Max pair of GFP control columns): 2320 nM; Emax ([1]; first pair): 1.96%; Emax (mGPR65; first pair): 11.6%; EC50 (mGPR65; SAR cAMP assay, first EC50/Max pair, read-out: mGPR EC50): 0.383 µM
CCN(CC)C(=O)c1cnn2c(O)cc(-c3ccc(COC)cc3)nc12 [BRD7582]	–	–	2640 nM	–	4.89%	–	–	–	–	–	6330 nM	10.8%	–
O=C(O)c1cnn2c(O)cc(-c3ccc(F)cc3)nc12 [BRD7884]	–	–	–	–	–	–	–	–	–	–	9180 nM	3.25%	–
COc1ncccc1-c1cc(O)n2ncc(C(=O)Nc3ccc(Cl)cc3)c2n1 [BRD8007]	–	–	–	–	–	–	2.17 µM	–	–	20%	6140 nM	6.72%	–
CCn1cc(Cl)c(-c2cc(O)n3ncc(C(N)=O)c3n2)n1 [BRD8068]	–	–	–	–	–	–	16.4 µM	–	–	13.4%	52900 nM	40.7%	–
COc1ccc(-c2cc(O)n3ncc(C(=O)Nc4ccc(C)cc4)c3n2)cc1 [BRD9965]	–	–	734 nM	924 nM	73.8%	66%	24.2 µM	32.3 µM	-39%	-56.6%	–	–	–
COCc1ccc(-c2cc(O)n3ncc(C(=O)Nc4ccc(NC(C)=O)cc4)c3n2)cc1 [BRD9998]	–	–	17600 nM	–	1.34%	–	–	–	–	–	91800 nM	3.25%	–
